Experimental data: ChEMBL document CHEMBL1130963, “Design and construction of novel thrombin inhibitors featuring P3-P4 quaternary lactam dipeptide surrogates” (Bioorg Med Chem Lett, 1998); call rule not given here

Experiments:
Coagulation factor X [1] = molecular target: T1, Coagulation factor X (Homo sapiens, UniProt P00742)
Plasminogen [2] = molecular target: T2, Plasminogen (Homo sapiens, UniProt P00747); test: In vitro inhibitory activity was evaluated against thrombolytic enzyme plasmin
Serine protease 1 = Serine protease 1 (Homo sapiens, UniProt P07477)
Prothrombin = Prothrombin (Homo sapiens, UniProt P00734); test: In vitro inhibitory activity was evaluated against thrombin (FIIa)
[3] = Ratio of thrombolytic enzyme plasmin to thrombin (FIIa) was evaluated
Coagulation factor X [4] = molecular target: T1, Coagulation factor X; test: In vitro inhibitory activity was evaluated against thrombin factor Xa (FXa); Inactive
Plasminogen [5] = molecular target: T2, Plasminogen; test: In vitro inhibitory activity was evaluated against thrombolytic enzyme plasmin; Inactive
[6] = Ratio of thrombin factor Xa (FXa) to thrombin (FIIa) was evaluated; Very high

Sequence of Serine protease 1 (P07477 whole entry): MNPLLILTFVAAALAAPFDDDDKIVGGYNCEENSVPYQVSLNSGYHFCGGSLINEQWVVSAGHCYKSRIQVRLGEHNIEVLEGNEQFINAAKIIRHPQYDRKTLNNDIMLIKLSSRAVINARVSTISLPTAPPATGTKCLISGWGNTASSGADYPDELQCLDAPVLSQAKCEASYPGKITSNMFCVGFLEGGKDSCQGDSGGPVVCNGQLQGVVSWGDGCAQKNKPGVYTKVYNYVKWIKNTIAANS
T2 sequence (P00747 97-580 limits assumed): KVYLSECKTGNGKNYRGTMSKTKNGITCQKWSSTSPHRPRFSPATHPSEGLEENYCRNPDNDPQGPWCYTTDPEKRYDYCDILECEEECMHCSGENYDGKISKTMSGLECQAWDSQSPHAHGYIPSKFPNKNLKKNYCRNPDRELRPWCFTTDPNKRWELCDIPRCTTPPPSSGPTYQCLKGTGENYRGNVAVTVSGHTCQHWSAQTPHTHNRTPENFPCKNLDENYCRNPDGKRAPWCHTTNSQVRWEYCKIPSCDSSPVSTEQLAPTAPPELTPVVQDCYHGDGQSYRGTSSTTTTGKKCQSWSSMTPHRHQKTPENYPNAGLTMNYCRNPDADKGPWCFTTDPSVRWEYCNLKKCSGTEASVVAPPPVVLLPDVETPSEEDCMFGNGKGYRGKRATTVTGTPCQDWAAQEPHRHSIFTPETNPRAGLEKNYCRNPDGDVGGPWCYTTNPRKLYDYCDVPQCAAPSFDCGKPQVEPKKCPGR
T2 sequence (P00747 581-810 limits assumed): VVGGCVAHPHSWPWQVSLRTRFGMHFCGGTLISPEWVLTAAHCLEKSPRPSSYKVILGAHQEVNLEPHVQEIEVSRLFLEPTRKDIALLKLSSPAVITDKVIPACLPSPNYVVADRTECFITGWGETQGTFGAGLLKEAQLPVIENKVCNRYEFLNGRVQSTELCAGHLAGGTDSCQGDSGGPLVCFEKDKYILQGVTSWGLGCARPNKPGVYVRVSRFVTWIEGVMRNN
T1 sequence (P00742 41-179 limits assumed): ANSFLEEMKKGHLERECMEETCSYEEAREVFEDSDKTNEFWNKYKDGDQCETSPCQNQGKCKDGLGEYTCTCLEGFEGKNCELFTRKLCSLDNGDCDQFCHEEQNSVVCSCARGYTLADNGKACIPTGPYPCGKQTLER
T1 sequence (P00742 235-488 limits assumed): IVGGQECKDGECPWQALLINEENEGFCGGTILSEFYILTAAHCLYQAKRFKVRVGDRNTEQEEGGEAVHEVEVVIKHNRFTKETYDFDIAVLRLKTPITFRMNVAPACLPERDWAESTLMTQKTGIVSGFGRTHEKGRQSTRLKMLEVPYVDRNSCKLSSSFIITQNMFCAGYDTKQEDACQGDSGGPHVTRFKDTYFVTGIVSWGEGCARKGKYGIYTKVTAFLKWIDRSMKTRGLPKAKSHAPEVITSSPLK

Compound | IC50 (Coagulation factor X [1]) [nM] | IC50 (Plasminogen [2]) [nM] | IC50 (Serine protease 1) [nM] | IC50 (Prothrombin) [nM] | Ratio [3] | IC50 (Coagulation factor X [4]) | IC50 (Plasminogen [5]) | Ratio [6]
CCOC(=O)[C@]1(NS(=O)(=O)Cc2ccccc2)CCCN(CC(=O)N[C@H]2CCCN(C(=N)N)[C@@H]2O)C1=O | 5.78 | 271 | 2 | 1.1 | 1.8 |  |  | 
N=C(N)N1CCC[C@H](NC(=O)CN2CCC[C@@](N)(Cc3ccccc3)C2=O)[C@@H]1O |  |  | 2500 | 138 | 18.2 | Not Active | Not Active | 
N=C(N)N1CCC[C@H](NC(=O)CN2CCC[C@H](NS(=O)(=O)Cc3ccccc3)C2=O)C1O (stereo partly drawn) |  | > 2500 |  |  | 128 |  |  | 
CCOC(=O)[C@]1(NS(=O)(=O)Cc2ccccc2)CCCN(CC(=O)N[C@H]2CCCN(C(=N)N)[C@H]2O)C1=O | 43.2 | > 2500 | 202 | 64.4 | 3.1 |  |  | 
N=C(N)N1CCC[C@H](NC(=O)CN2CCC[C@@](N)(Cc3ccccc3)C2=O)[C@H]1O |  |  | 139 | 2.07 | 67.1 | Not Active | Not Active | Very high
